Assay results from patent US7238813B2, “Chemical compounds” (Smithkline Beecham Corporation, priority 2000, dated 2007).
pIC50: −log10 of the molar value.

target: T1, GST-VEGFR2 (Homo sapiens, UniProt P35968); test: VEGF-R2 enzyme assay (VEGF-E), LANCE method; assay type: biochemical; conditions: 75 μM ATP
T1 construct: GST-VEGFR2, baculovirus expressed recombinant constructs of the intracellular domains of human TIE2 tagged by GST; made in house
Experimental: VEGF-R2 Enzyme Assay (VEGF-E)
The VEGF enzyme assay used the LANCE method (Wallac) and GST-VEGFR2, baculovirus expressed recombinant constructs of the intracellular domains of human […] tagged by GST. […] The reaction was stopped by the addition of EDTA (final concentration 50 mM). Streptavidin linked-APC (allophycocyanin, Molecular Probe) and Europium-labeled anti-phosphorylated tyrosine antibody (Wallac) were then added at the final concentration of 15 nM and 1 nM, respectively. The APC signal was measured using an ARVO multilabel counter (Wallac Berthold, Japan). The percent inhibition of activity was calculated relative to blank control wells. The concentration of test compound that inhibits 50% of activity (IC50) was interpolated using nonlinear regression (Levernberg-Marquardt) and the equation, y=Vmax (1−x/(K+x))+Y2, where “K” was equal to the IC50. The IC50 values were converted to pIC50 values, i.e., −log IC50 in Molar concentration.

T1 sequence (P35968 786-1356 limits assumed): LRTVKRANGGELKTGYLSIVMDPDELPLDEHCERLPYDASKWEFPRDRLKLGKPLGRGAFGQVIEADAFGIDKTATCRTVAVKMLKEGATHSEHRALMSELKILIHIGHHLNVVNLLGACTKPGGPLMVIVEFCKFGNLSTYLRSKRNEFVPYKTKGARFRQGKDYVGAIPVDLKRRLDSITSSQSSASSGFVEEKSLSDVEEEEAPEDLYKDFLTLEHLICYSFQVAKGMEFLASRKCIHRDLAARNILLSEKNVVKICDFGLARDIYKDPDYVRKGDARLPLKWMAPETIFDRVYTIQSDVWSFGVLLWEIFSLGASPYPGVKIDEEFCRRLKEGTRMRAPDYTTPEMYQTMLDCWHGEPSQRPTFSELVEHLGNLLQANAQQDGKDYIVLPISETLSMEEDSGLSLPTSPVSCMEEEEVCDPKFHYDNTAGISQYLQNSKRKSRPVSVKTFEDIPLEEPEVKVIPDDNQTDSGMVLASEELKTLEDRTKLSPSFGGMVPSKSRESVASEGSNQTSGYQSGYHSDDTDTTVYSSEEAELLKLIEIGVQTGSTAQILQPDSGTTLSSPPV

**Q.** How did the pIC50 turn out when COC(=O)Nc1nc2cc(Oc3cccc(NC(=O)Nc4cccc(SC(F)(F)F)c4)c3)ccc2[nH]1 [Example 58] was run?
**A.** The pIC50 was over 7.00.

**Q.** With COC(=O)Nc1nc2cc(Oc3cccc(NC(=O)Nc4cccc(Br)c4)c3)ccc2[nH]1 [Example 59, Methyl N-(5-(3-((3-bromophenyl)aminocarbonylamino)phenoxy)-1H-benzimidazol-2-yl)carbamate] as the compound, how does the pIC50 read?
**A.** The pIC50 was over 7.00.

**Q.** How did the pIC50 turn out when COC(=O)Nc1nc2cc(Oc3cccc(NC(=O)Nc4cccc(Oc5ccccc5)c4)c3)ccc2[nH]1 [Example 60, Methyl N-(5-(3-((3-(phenoxy)phenyl)aminocarbonylamino)phenoxy)-1H-benzimidazol-2-yl)carbamate] was run?
**A.** Its pIC50 is over 7.00.

**Q.** How did the pIC50 turn out when COC(=O)Nc1nc2cc(Oc3cccc(NC(=O)Nc4ccc(Cl)cc4)c3)ccc2[nH]1 [Example 61, Methyl N-(5-(3-((4-chlorophenyl)aminocarbonylamino)phenoxy)-1H-benzimidazol-2-yl)carbamate] was run?
**A.** The pIC50 was over 7.00.

**Q.** COC(=O)Nc1nc2cc(Oc3ccc(NC(=O)Nc4ccc(OC)cc4)cc3)ccc2[nH]1 [Example 62, Methyl N-(5-(4-((4-methoxyphenyl)aminocarbonylamino)phenoxy)-1H-benzimidazol-2-yl)carbamate] was tested. Which pIC50 did it give?
**A.** The pIC50 was over 7.00.

**Q.** How did the pIC50 turn out when COC(=O)Nc1nc2cc(Oc3ccc(NC(=O)Nc4ccc(F)cc4)cc3)ccc2[nH]1 [Example 63, Methyl N-(5-(4-((4-fluorophenyl)aminocarbonylamino)phenoxy)-1H-benzimidazol-2-yl)carbamate] was run?
**A.** Its pIC50 is over 7.00.

**Q.** COC(=O)Nc1nc2ccc(C(=O)c3ccc(NC(=O)Nc4cc(C(F)(F)F)ccc4F)cc3)cc2[nH]1 [Example 78, Methyl N-(5-(4-((2-fluoro-5-(trifluoromethyl)phenyl)aminocarbonylamino)phenylcarbonyl)-1H-benzimidazol-2-yl)carbamate] was tested. Which pIC50 did it give?
**A.** The pIC50 was over 7.00.

**Q.** COC(=O)Nc1nc2cc(Oc3cccc(NC(=O)Nc4ccccc4OC(F)(F)F)c3)ccc2[nH]1 [Example 116, Methyl N-(5-(3-((2-(trifluoromethoxy)phenyl)aminocarbonylamino)phenoxy)-1H-benzimidazol-2-yl)carbamate] was tested. Which pIC50 did it give?
**A.** The pIC50 was over 7.00.

**Q.** With COC(=O)Nc1nc2cc(Oc3cccc(NC(=O)Nc4ccc(SC(F)(F)F)cc4)c3)ccc2[nH]1 [Example 117, Methyl N-(5-(3-((4-(trifluoromethylthio)phenyl)aminocarbonylamino)phenoxy)-1H-benzimidazol-2-yl)carbamate] as the compound, how does the pIC50 read?
**A.** The pIC50 was over 7.00.

**Q.** COC(=O)Nc1nc2cc(Oc3cccc(NC(=O)Nc4ccccc4C(F)(F)F)c3)ccc2[nH]1 [Example 118, Methyl N-(5-(3-((2-(trifluoromethyl)phenyl)aminocarbonylamino)phenoxy)-1H-benzimidazol-2-yl)carbamate] was tested. Which pIC50 did it give?
**A.** Its pIC50 is 6.00 to 7.00.

**Q.** How did the pIC50 turn out when COC(=O)Nc1nc2cc(Oc3cccc(NC(=O)Nc4ccc(Cl)c(C(F)(F)F)c4)c3)ccc2[nH]1 [Example 119, Methyl N-(5-(3-((4chloro-3-(trifluoromethyl)phenyl)aminocarbonylamino)phenoxy)-1H-benzimidazol-2-yl)carbamate] was run?
**A.** The pIC50 was over 7.00.

**Q.** How did the pIC50 turn out when COC(=O)Nc1nc2cc(Oc3cccc(NC(=O)Nc4cccc(I)c4)c3)ccc2[nH]1 [Example 120, Methyl N-(5-(3-((3-iodophenyl)aminocarbonylamino)phenoxy)-1H-benzimidazol-2-yl)carbamate] was run?
**A.** Its pIC50 is over 7.00.

**Q.** With COC(=O)Nc1nc2cc(Oc3cccc(NC(=O)Nc4cc(Cl)ccc4Cl)c3)ccc2[nH]1 [Example 121, Methyl N-(5-(3-((2,5-dichlorophenyl)aminocarbonylamino)phenoxy)-1H-benzimidazol-2-yl)carbamate] as the compound, how does the pIC50 read?
**A.** Its pIC50 is 6.00 to 7.00.

**Q.** COC(=O)Nc1nc2cc(Oc3ccc(NC(=O)Nc4cccc(Oc5ccccc5)c4)cc3)ccc2[nH]1 [Example 123, Methyl N-(5-(4-((3-phenoxyphenyl)aminocarbonylamino)phenoxy)-1H-benzimidazol-2-yl)carbamate] was tested. Which pIC50 did it give?
**A.** Its pIC50 is 6.00 to 7.00.

**Q.** COC(=O)Nc1nc2cc(Oc3cccc(NC(=O)Nc4ccccc4Oc4ccccc4)c3)ccc2[nH]1 [Example 124, Methyl N-(5-(3-((2-phenoxyphenyl)aminocarbonylamino)phenoxy)-1H-benzimidazol-2-yl)carbamate] was tested. Which pIC50 did it give?
**A.** The pIC50 was over 7.00.

**Q.** COC(=O)Nc1nc2cc(Oc3cccc(NC(=O)Nc4ccc(Oc5ccccc5)cc4)c3)ccc2[nH]1 [Example 125, Methyl N-(5-(3-((4-phenoxyphenyl)aminocarbonylamino)phenoxy)-1H-benzimidazol-2-yl)carbamate] was tested. Which pIC50 did it give?
**A.** The pIC50 was over 7.00.

**Q.** How did the pIC50 turn out when COC(=O)Nc1nc2cc(Oc3ccc(NC(=O)Nc4ccc5c(c4)CCC5)cc3)ccc2[nH]1 [Example 127, Methyl N-(5-(4-((5-indanyl)aminocarbonylamino)phenoxy)-1H-benzimidazol-2-yl)carbamate] was run?
**A.** Its pIC50 is over 7.00.

**Q.** COC(=O)Nc1nc2cc(Oc3ccc(NC(=O)Nc4cc(C(C)(C)C)on4)cc3)ccc2[nH]1 [Example 128, Methyl N-(5-(4-((5-tert-butylisoxazole-3-yl)aminocarbonylamino)phenoxy)-1H-benzimidazol-2-yl)carbamate] was tested. Which pIC50 did it give?
**A.** Its pIC50 is over 7.00.

**Q.** How did the pIC50 turn out when COC(=O)Nc1nc2cc(Oc3cccc(NC(=O)Nc4cc(C(C)(C)C)on4)c3)ccc2[nH]1 [Example 129, Methyl N-(5-(3-((5-tert-butylisoxazole-3-yl)aminocarbonylamino)phenoxy)-1H-benzimidazol-2-yl)carbamate] was run?
**A.** Its pIC50 is over 7.00.

**Q.** With COC(=O)Nc1nc2cc(Sc3ccc(NC(=O)Nc4cc(C(C)(C)C)on4)cc3)ccc2[nH]1 [Example 130, Methyl N-(5-(4-((5-tert-butylisoxazole-3-yl)aminocarbonylamino)phenylthio)-1H-benzimidazol-2-yl)carbamate] as the compound, how does the pIC50 read?
**A.** Its pIC50 is over 7.00.

**Q.** O=C(Nc1ccc(Oc2ccc3[nH]c(NC(=O)Nc4cc(C(F)(F)F)ccc4F)nc3c2)cc1)Nc1cc(C(F)(F)F)ccc1F [Example 133, 1-(5-(4-((2-Fluoro-5-(trifluoromethyl)phenyl)aminocarbonylamino)phenoxy)-1H-benzimidazol-2-yl)-3-(2-fluoro-5-(trifluoromethyl)phenyl)urea] was tested. Which pIC50 did it give?
**A.** Its pIC50 is over 7.00.

**Q.** O=C(Nc1ccc(Cl)cc1)Nc1nc2cc(Oc3ccc(NC(=O)Nc4cc(C(F)(F)F)ccc4F)cc3)ccc2[nH]1 [Example 134, 1-(5-(4-((2-Fluoro-5-(trifluoromethyl)phenyl)aminocarbonylamino)phenoxy)-1H-benzimidazol-2-yl)-3-(4-chlorophenyl)urea] was tested. Which pIC50 did it give?
**A.** The pIC50 was over 7.00.

**Q.** With CCCCNC(=O)Nc1nc2ccc(Oc3ccc(NC(=O)Nc4ccc(Cl)c(C(F)(F)F)c4)cc3)cc2s1 [Example 136, 1-(6-(4-((4-Chloro-3-(trifluoromethyl)phenyl)aminocarbonylamino)phenoxy)benzthiazol-2-yl)-3-(butyl)urea] as the compound, how does the pIC50 read?
**A.** The pIC50 was over 7.00.

**Q.** CCCCNC(=O)Nc1nc2ccc(Oc3ccc(NC(=O)Nc4cc(C(F)(F)F)ccc4F)cc3)cc2s1 [Example 137, 1-(6-(4-((2-Fluoro-5-(trifluoromethyl)phenyl)aminocarbonylamino)phenoxy)benzthiazol-2-yl)-3-(butyl)urea] was tested. Which pIC50 did it give?
**A.** The pIC50 was over 7.00.

**Q.** COCCOCC(=O)Nc1nc2cc(Oc3ccc(NC(=O)Nc4nnc(N5CCOCC5)[nH]4)cc3)ccc2[nH]1 [Example 163, N-(5-(4-((5-Morpholino-1,3,4-triazol-2-yl)aminocarbonylamino)phenoxy)-1H-benzimidazol-2-yl)(2-(methoxy)ethoxy)acetamide] was tested. Which pIC50 did it give?
**A.** Its pIC50 is 5.00 to 6.00.

target: T2, GST-TIE2 (intracellular domains of human TIE2) (Homo sapiens, UniProt Q02763); test: TIE-2 enzyme assay (TIE2-E), LANCE method; assay type: biochemical; conditions: 80 uM ATP
T2 construct: made in house
Experimental: TIE-2Enzyme Assay (TIE2-E)
The TIE-2 enzyme assay used the LANCE method (Wallac) and GST-TIE2, baculovirus expressed recombinant constructs of the intracellular domains of human TIE2 (amino acids 762–1104, GenBank Accession # L06139) tagged by GST). […] This peptide phosphorylation was detected using the following procedure: for enzyme preactivation, GST-TIE2 was incubated for 30 mins at room temperature with 2 mM ATP, 5 mM MgCl2 and 12.5 mM DTT in 22.5 mM HEPES buffer (pH7.4). Preactivated GST-TIE2 was incubated for 30 mins at room temperature in 96 well plates with 1 μM D1-15 peptide, 80 uM ATP, 10 mM MgCl2, 0.1 mg/ml BSA and the test compound (diluted from a 10 mM stock in DMSO, final DMSO concentration was 2.4%) in 1 mM HEPES (pH7.4). The reaction was stopped by the addition of EDTA (final concentration 45 mM). Streptavidin linked-APC (allophycocyanin, Molecular Probe) and Europium-labeled anti-phosphorylated tyrosine antibody (Wallac) were then added at the final concentration of 17 μg/well and 2.1 μg/well, respectively. The APC signal was measured using an ARVO multilabel counter. (Wallac Berthold Japan). The percent inhibition of activity was calculated relative to blank control wells. The concentration of test compound that inhibits 50% of activity (IC50) was interpolated using nonlinear regression (Levernberg-Marquardt) and the equation, y=Vmax (1−x/(K+x))+Y2, where “K” was equal to the IC50. The IC50 values were converted to pIC50 values, i.e., −log IC50 in Molar concentration.

T2 sequence (Q02763 762-1104): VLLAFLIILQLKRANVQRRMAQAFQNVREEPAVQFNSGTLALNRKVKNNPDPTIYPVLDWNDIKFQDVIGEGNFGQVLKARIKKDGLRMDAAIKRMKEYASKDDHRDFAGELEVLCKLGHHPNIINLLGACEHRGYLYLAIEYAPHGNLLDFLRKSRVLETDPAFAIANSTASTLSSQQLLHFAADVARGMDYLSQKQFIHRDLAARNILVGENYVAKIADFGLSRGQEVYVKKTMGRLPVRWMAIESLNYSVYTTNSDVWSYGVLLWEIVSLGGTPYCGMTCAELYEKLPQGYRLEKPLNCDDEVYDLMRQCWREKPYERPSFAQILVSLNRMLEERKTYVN

**Q.** How did the pIC50 turn out when COC(=O)Nc1nc2cc(Oc3ccc(NC(=O)Nc4ccc(OC)cc4)cc3)ccc2[nH]1 [Example 62, Methyl N-(5-(4-((4-methoxyphenyl)aminocarbonylamino)phenoxy)-1H-benzimidazol-2-yl)carbamate] was run?
**A.** The pIC50 was 5.00 to 6.00.

**Q.** With COC(=O)Nc1nc2cc(Oc3ccc(NC(=O)Nc4ccc(F)cc4)cc3)ccc2[nH]1 [Example 63, Methyl N-(5-(4-((4-fluorophenyl)aminocarbonylamino)phenoxy)-1H-benzimidazol-2-yl)carbamate] as the compound, how does the TIE2-E read?
**A.** Its TIE2-E is “−”.

**Q.** Nc1nc2ccc(Oc3ccc(NC(=O)Nc4cc(C(F)(F)F)ccc4F)nc3)cc2n1Cc1ccccc1 [Example 113, 6-(6-((2-Fluoro-5-(trifluoromethyl)phenyl)aminocarbonylamino)-3-pyridyloxy)-1-benzyl-1H-benzimidazol-2-ylamine] was tested. Which pIC50 did it give?
**A.** The pIC50 was over 7.00.
